Source: patent publication US20120196895A1, “NOVEL FORMS OF EPERISONE” (Bionevia Pharmaceuticals, Inc., priority 2009, published 2012)
Where a name gives a salt, the structure may show the parent alone.

Assay: Solubility determinations of crystalline forms of racemic eperisone in water
Assay type: physicochemical
Details: for Solubility: HPLC-grade water, slurry on rotating wheel 46.5 hours at ambient temperature (about 19° C.), filtrate dried and weighed; for Relative solubility among the forms: ranking of the Table 10 solubilities in water
Protocol: The solubilities of the crystalline forms of racemic eperisone were determined as follows. Each experiment was conducted in a one-dram vial by adding weighed amounts of solid salt in portions to a weighed amount of HPLC-grade water until a slurry was obtained. In the case of the mesylate salt, a slurry was not obtained; solid addition was stopped while a solution was still present. Each vial was capped and placed on a rotating wheel for 46.5 hours at ambient temperature. Each vial was removed from the wheel. The ambient temperature at the time of removal was about 19° C. The contents of each vial were vacuum filtered through Whatman Grade 1 filter paper. Solids adhering to the inside of the vial were not recovered. Each filtrate was weighed, dried under diaphragm pump pressure over phosphorus pentoxide, and the resulting solid residue was weighed. Each filter cake was allowed to dry in the air overnight and was weighed.

| SMILES | Solubility [mg/mL] | Relative solubility among the forms (listed as racemic eperisone mesylate) | Relative solubility among the forms (listed as racemic eperisone fumarate) |
| --- | --- | --- | --- |
| CCc1ccc(C(=O)C(C)CN2CCCCC2)cc1 (racemic) [Mesylate, (2RS)-1-(4-ethylphenyl)-2-methyl-3-piperidin-1-yl-propan-1-one] | >392.2 | most soluble |  |
| CCc1ccc(C(=O)C(C)CN2CCCCC2)cc1 (racemic) [Fumarate, (2RS)-1-(4-ethylphenyl)-2-methyl-3-piperidin-1-yl-propan-1-one] | 16.8 |  | least soluble |
| CCc1ccc(C(=O)C(C)CN2CCCCC2)cc1 (racemic) [Hydrochloride, (2RS)-1-(4-ethylphenyl)-2-methyl-3-piperidin-1-yl-propan-1-one, reference compound] | 210.7 |  |  |
| CCc1ccc(C(=O)C(C)CN2CCCCC2)cc1 (racemic) [Succinate, (2RS)-1-(4-ethylphenyl)-2-methyl-3-piperidin-1-yl-propan-1-one] | 114.7 |  |  |
| CCc1ccc(C(=O)C(C)CN2CCCCC2)cc1 (racemic) [Maleate, (2RS)-1-(4-ethylphenyl)-2-methyl-3-piperidin-1-yl-propan-1-one] | 20.7 |  |  |
